The values that follow come from ChEMBL document CHEMBL1153502, “Investigation of the pharmacophore space of Severe Acute Respiratory Syndrome coronavirus (SARS-CoV) NTPase/helicase by dihydroxychromone derivatives” (Bioorg Med Chem Lett, 2009).

As a reminder, the IC50 is the concentration at which inhibition is half-maximal.

Some results are limits rather than exact numbers.

Assay [1] has as its target T1, Replicase polyprotein 1ab (Severe acute respiratory syndrome-related coronavirus, UniProt P0C6X7). The experiment in a line: Inhibition of ATPase activity of SARS coronavirus helicase assessed as phosphate release by malachite green assay.
The target in assay [2] is T1, Replicase polyprotein 1ab. The experiment in a line: Inhibition of SARS coronavirus helicase assessed as duplex-DNA unwinding by FRET based assay.

With `O=c1cc(CNCc2ccc(Cl)cc2)oc2ccc(O)c(O)c12`, the IC50 in assay [1] and in assay [2] was > 50 µM in each case.
In the case of `O=c1c(O)c(-c2ccc(O)c(O)c2)oc2cc(OCc3ccc(Cl)cc3)cc(O)c12`, the concentration for half-maximal inhibition (IC50) came out at 20.9 µM in assay [1] and 4.1 µM in assay [2].
On to `O=c1c(O)c(-c2ccc(O)c(O)c2)oc2cc(OCc3cccc(Cl)c3)cc(O)c12`, for which the results for the IC50 in assay [1] and in assay [2] were > 50 µM and 5.2 µM, respectively.
For `N#Cc1cccc(COc2cc(O)c3c(=O)c(O)c(-c4ccc(O)c(O)c4)oc3c2)c1`, in that order: 25.4 µM and 2.7 µM.
On to `O=c1c(O)c(-c2ccc3c(c2)OCO3)oc2cc(OCc3ccc(Cl)cc3)cc(O)c12`, for which the IC50 was > 50 µM in assay [1] and 9.3 µM in assay [2].
For `N#Cc1cccc(COc2cc(O)c3c(=O)c(O)c(-c4ccc5c(c4)OCO5)oc3c2)c1`, the IC50 was 42.9 µM in assay [1] and 8.1 µM in assay [2].
For the compound `O=c1c(O)c(-c2ccc3c(c2)OCO3)oc2cc(O)cc(O)c12`, the IC50 in assay [1] and in assay [2] was > 50 µM throughout.
Turning to `O=c1cc(CNCc2cccc(Cl)c2)oc2ccc(O)c(O)c12`, the IC50 in assay [1] and in assay [2] was > 50 µM each time.
`N#Cc1cccc(CNCc2cc(=O)c3c(O)c(O)ccc3o2)c1`: the IC50 in assay [1] and in assay [2] was > 50 µM each time.
In the case of `O=c1c(O)c(-c2ccc3c(c2)OCO3)oc2cc(OCc3cccc(Cl)c3)cc(O)c12`, the figures for the IC50 in assay [1] and in assay [2] were > 50 µM and 15.4 µM, respectively.
